For two compounds, Ki and inhibition in vivo results are on record in patent US10131679B2, “Substituted dihydropyrrolopyrazole compound” (UBE INDUSTRIES, LTD., priority 2014, dated 2018).

One test has as its target T1, CDK2 (Homo sapiens, UniProt P24941).
T1 construct: purchased Invitrogen Corp. PV3267
As to the kind of experiment: CDK2 enzyme inhibition test. Format: biochemical. Particulars: Ki=IC50/(1+S/Km); 33P bound to MBP, [γ-33P]ATP, 30° C. for 20 minutes; read-out: Ki value of CDK2 inhibitory activity. In outline:
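Commercial CDK2 with MBP substrate and [γ-33P]ATP (500 μM solution, before mixing) in HEPES pH 7.4 buffer with DTT, Triton X-100 and MgCl2; 20 min at 30 °C. TCA-precipitated 33P-MBP counted by liquid scintillation; IC50 from inhibition of 33P incorporation, Ki = IC50/(1+S/Km).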

The next test concerns the target T2, PAK4 (Homo sapiens, UniProt O96013).
T2 construct: purchased Invitrogen Corp. PV4212
As to the kind of experiment: PAK4 enzyme inhibition test. The format is biochemical. Particulars: Ki=IC50/(1+S/Km); 33P bound to MBP, [γ-33P]ATP, 30° C. for 20 minutes; read-out: Ki value of PAK4 inhibitory activity. In outline: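 Radiometric assay: PAK4 with MBP substrate and 40 μM [γ-^33P]ATP solution in Tris pH 7.5 buffer with MgCl2, DTT, EGTA, reacted 20 min at 30 °C. TCA-precipitated, washed ^33P-MBP counted by scintillation. IC50 from inhibition of ^33P incorporation; Ki = IC50/(1+S/Km).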

The subject of test [1] is mouse imiquimod-induced psoriasis model. The test can be described thus: Ear thickening suppression test using mouse imiquimod-induced psoriasis model. Particulars: topical, 120 h, thickness measured on day 5, BALB/c mice, read-out: rate of inhibition of increase in right auricle thickness. Format: in vivo. An outline of the steps: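 Female BALB/c mice received test compound topically or orally, then 5 mg imiquimod cream (5%) on the right auricle 60 minutes later, daily for 4 days. Ear thickness was measured on day 5. Inhibition (%) of thickening was calculated relative to the solvent group, taken as 100%.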

T2 sequence (O96013 whole entry): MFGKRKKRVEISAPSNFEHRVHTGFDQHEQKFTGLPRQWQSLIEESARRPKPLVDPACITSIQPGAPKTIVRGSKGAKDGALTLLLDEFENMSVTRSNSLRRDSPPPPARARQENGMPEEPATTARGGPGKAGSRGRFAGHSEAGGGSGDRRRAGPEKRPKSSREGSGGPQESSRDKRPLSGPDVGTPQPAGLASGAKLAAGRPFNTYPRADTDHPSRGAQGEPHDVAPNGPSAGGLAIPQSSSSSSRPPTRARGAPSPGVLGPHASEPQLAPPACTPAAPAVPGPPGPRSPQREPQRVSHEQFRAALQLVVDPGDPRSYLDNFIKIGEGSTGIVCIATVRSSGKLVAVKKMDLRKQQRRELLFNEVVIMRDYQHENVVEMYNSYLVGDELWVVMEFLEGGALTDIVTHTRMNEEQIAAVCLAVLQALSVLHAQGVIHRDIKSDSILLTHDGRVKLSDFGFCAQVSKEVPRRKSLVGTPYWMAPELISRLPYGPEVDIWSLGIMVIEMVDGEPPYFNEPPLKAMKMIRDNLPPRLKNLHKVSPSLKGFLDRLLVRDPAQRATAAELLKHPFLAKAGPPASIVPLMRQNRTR

As to `CC(C)O[C@@H](C(=O)N1Cc2c(NC(=O)C3([Si](C)(C)C)CCC3)n[nH]c2C1(C)C)c1ccccc1` [IV-1204, (R)—N-[5-(2-Isopropoxy-2-phenylacetyl)-6,6-dimethyl-1,4,5,6-tetrahydropyrrolo[3,4-c]pyrazol-3-yl]-1-(trimethylsilyl)cyclobutanecarboxamide], the results for the Ki on CDK2 and at PAK4 were at least 1000 nM and at least 500 nM, respectively. Further, in test [1] (application of a 0.01% methanol solution for 4 days), the inhibition in vivo at 0.01 % is at least 50%.
For the compound `CC1(C)c2[nH]nc(NC(=O)C3([Si](C)(C)C)CCC3)c2CN1C(=O)N[C@H](CCO)c1ccccc1` [IV-227, (R)—N-(3-Hydroxy-1-phenylpropyl)-6,6-dimethyl-3-[1-(trimethylsilyl)cyclobutanecarboxamido]-4,6-dihydropyrrolo[3,4-c]pyrazole-5(1H)-carboxamide], the Ki was at least 1000 nM at CDK2 and at least 500 nM at PAK4. The inhibition in vivo at 1 % in test [1] (application of a 1% solution in methanol for 4 days) is at least 50%.

As a reminder, the Ki is a dissociation constant, usually derived from enzyme kinetics or from competition with a known ligand.
